Format in all cases: biochemical
Test [1] concerns Rabbit Skeletal myofibrils (rabbit psoas muscle). Put plainly: Myofibril ATPase assay (PK/LDH NADH-coupled), skeletal myofibrils. In a few lines:
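Rabbit psoas myofibrils in pCa (PIPES/CaCl2/EGTA, pH 7.0) buffer; ADP coupled via PK/LDH to NADH loss, read at 340 nm every 1.5–2 min for 75 min. Slopes normalized to vehicle (100%) and fit to 4-parameter logistic for EC25, plus EC50 for inhibitors.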

Test [2] addresses T1, Porcine Ventricle myofibrils (left ventricle of Yucatan minipigs) (Sus scrofa, UniProt P79293).
T1 construct: Myofibrils from porcine cardiac muscle was isolated from the left ventricle of Yucatan minipigs; tissue Exemplar Genetics; host or cells: left ventricle of Yucatan minipigs
The test can be described thus: Myofibril ATPase assay (PK/LDH NADH-coupled), ventricle myofibrils. The method in brief: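 Yucatan minipig left-ventricle myofibrils; ATPase measured by PK/LDH-coupled NADH loss at 340 nm, read every 1.5-2 min for 75 min. Slopes normalized to vehicle (100%) and fit to 4-parameter logistic model; EC25 and, for inhibitors, EC50 calculated.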

A further test deals with Porcine Atria myofibrils. The test can be described thus: Myofibril ATPase assay (PK/LDH NADH-coupled), atria myofibrils. In a few lines:
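Porcine atrial myofibril ATPase followed via PK/LDH-coupled NADH depletion, absorbance at 340 nm read every 1.5-2 min over 75 min. Slopes (mAU/min) normalized to vehicle as 100% and fit to a 4-parameter logistic; EC25% derived, plus EC50% for inhibitors.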

Each structure is given as a SMILES string.

T1 sequence (P79293 whole entry): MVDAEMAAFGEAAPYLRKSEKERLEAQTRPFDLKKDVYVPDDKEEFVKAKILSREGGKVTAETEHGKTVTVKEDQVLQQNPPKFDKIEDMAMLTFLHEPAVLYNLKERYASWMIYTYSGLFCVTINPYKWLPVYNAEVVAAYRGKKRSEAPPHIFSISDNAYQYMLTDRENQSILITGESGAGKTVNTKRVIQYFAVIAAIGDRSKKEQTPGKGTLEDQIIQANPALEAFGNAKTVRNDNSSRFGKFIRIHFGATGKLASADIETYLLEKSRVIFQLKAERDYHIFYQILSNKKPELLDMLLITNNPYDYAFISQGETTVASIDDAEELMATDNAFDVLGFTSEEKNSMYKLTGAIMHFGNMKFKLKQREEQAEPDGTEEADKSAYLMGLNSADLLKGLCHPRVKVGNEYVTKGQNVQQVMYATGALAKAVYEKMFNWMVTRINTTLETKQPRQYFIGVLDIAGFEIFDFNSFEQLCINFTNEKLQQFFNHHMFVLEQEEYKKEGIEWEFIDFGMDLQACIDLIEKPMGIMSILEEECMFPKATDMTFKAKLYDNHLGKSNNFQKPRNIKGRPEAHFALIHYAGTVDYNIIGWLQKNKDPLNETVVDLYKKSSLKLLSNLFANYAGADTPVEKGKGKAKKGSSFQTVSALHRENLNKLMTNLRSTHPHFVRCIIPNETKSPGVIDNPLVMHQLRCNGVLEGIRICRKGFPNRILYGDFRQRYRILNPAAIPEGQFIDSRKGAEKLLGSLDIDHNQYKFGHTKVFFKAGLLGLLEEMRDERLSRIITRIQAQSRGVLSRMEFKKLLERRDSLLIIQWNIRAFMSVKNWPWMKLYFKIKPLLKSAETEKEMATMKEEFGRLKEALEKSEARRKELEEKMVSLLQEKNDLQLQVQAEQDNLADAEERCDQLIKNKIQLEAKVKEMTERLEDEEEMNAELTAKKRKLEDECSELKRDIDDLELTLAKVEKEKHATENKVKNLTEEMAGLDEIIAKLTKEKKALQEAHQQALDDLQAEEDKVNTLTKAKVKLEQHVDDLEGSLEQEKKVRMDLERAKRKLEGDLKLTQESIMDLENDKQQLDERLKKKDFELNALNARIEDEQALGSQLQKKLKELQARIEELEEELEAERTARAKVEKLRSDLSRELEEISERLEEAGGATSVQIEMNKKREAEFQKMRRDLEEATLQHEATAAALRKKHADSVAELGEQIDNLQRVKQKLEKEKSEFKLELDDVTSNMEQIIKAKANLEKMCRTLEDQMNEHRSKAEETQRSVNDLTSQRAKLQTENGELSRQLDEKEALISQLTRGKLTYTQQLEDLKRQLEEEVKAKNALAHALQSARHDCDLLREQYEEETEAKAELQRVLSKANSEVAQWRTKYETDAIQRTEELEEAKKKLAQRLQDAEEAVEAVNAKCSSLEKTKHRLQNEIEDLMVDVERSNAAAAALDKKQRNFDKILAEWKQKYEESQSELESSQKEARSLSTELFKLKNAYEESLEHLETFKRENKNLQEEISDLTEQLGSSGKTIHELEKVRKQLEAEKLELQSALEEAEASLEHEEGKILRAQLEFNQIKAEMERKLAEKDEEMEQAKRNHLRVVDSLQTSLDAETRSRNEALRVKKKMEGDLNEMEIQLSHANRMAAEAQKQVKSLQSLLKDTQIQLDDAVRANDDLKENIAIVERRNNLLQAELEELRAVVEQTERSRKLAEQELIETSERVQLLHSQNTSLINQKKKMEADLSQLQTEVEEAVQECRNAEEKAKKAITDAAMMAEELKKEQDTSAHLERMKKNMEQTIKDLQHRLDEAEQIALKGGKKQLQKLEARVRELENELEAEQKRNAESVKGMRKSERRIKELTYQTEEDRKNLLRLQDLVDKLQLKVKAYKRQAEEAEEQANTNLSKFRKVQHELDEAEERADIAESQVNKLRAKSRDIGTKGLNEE

As for `C[C@@H](NC(=O)CN1Cc2cc(F)ccc2NC1=O)c1ccc(C#N)cn1` [Compound B171], in test [1] (Table 8), the “Rabbit Psoas IC25” value worked out at 7.545 µM. The “Porcine Ventricle IC25” value in test [2] (Table 8) stood at 100 µM. For the same compound, the “Porcine Atria IC25” value with Porcine Atria myofibrils (Table 8) was found to be 19.79 µM.
With `C[C@@H](NC(=O)CN1Cc2nc(C#N)ccc2NC1=O)c1ncc(F)cc1F` [Compound N58], the “Rabbit Psoas IC25” value in test [1] (Table 7) was 100 µM. Besides, the “Porcine Ventricle IC25” value in test [2] (Table 7) amounted to 100 µM. Moreover, in the test on Porcine Atria myofibrils (Table 7), the “Porcine Atria IC25” value was found to be 100.00 µM.
Regarding `C[C@H](NC(=O)CN1Cc2cc(F)ccc2NC1=O)c1ccc(C#N)cc1` [Compound B204], in test [1] (Table 8), the “Rabbit Psoas IC25” value worked out at 0.1501 µM. The “Porcine Ventricle IC25” value in test [2] (Table 8) was determined as 1.393 µM. In the test with Porcine Atria myofibrils (Table 8), the “Porcine Atria IC25” value was found to be 0.27 µM.
The matching figures for `C[C@H](NC(=O)CN1Cc2cc(F)ccc2NC1=O)c1ncccn1` [Compound B216]: 100 µM, 100 µM and 100.00 µM.
Regarding `O=C(CN1C(=O)Nc2cccnc2C12CC2)N[C@@H](CO)c1ccc(F)cc1F` [Compound N44], the “Rabbit Psoas IC25” value in test [1] (Table 7) was found to be 0.5658 µM. The “Porcine Ventricle IC25” value in test [2] (Table 7) was 18.96 µM. The “Porcine Atria IC25” value with Porcine Atria myofibrils (Table 7) was 1.18 µM.
For the compound `CC(C)C[C@@H](C(=O)N[C@@H](C)c1ncc(F)cc1F)N1Cc2c(ccc(F)c2F)NC1=O` [Compound B50], the “Rabbit Psoas IC25” value in test [1] (Table 8) came to 100 µM. In addition, the “Porcine Ventricle IC25” value in test [2] (Table 8) amounted to 42.56 µM. For the same compound, the “Porcine Atria IC25” value in the test with Porcine Atria myofibrils (Table 8) turned out to be 100.00 µM.
The matching figures for `C[C@H](NC(=O)CN1Cc2c(ccc(F)c2F)NC1=O)c1cc2ccccc2cn1` [Compound B285]: 100.00 µM, 100.00 µM and 100.00 µM.
The matching figures for `Cc1cc(C#N)nnc1[C@@H](C)NC(=O)CN1Cc2c(ccc(F)c2F)NC1=O` [Compound B22]: 0.9012 µM, 6.451 µM and 10.83 µM.
For `C[C@H](NC(=O)CN1Cc2c(ccnc2Cl)NC1=O)c1ccc(F)cc1F` [Compound N128, 2-{5-Chloro-2-oxo-1H,4H-pyrido[4,3-d]pyrimidin-3-yl}-N-[(1S)-1-(2,4-difluorophenyl)ethyl]acetamide], the “Rabbit Psoas IC25” value in test [1] (Table 7) was 0.0418 µM. Further, in test [2] (Table 7), the “Porcine Ventricle IC25” value came to 0.2533 µM. Besides, the “Porcine Atria IC25” value with Porcine Atria myofibrils (Table 7) was determined as 0.08 µM.
Regarding `O=C(CN1Cc2cc(F)ccc2NC1=O)N[C@H]1COc2cc(F)cc(F)c21` [Compound B146], the “Rabbit Psoas IC25” value in test [1] (Table 8) is 5.163 µM. For the same compound, the “Porcine Ventricle IC25” value in test [2] (Table 8) is 68.33 µM. Moreover, the “Porcine Atria IC25” value in the test on Porcine Atria myofibrils (Table 8) came out at 1.52 µM.
Regarding `C[C@H](NC(=O)CN1Cc2c(ccnc2C(F)(F)F)NC1=O)c1ccc(F)cc1F` [Compound N126], in test [1] (Table 7), the “Rabbit Psoas IC25” value amounted to 0.07562 µM. Besides, in test [2] (Table 7), the “Porcine Ventricle IC25” value turned out to be 4.027 µM. In the test on Porcine Atria myofibrils (Table 7), the “Porcine Atria IC25” value stood at 0.60 µM.
`Cc1nc(C#N)ncc1[C@@H](C)NC(=O)CN1Cc2c(ccc(F)c2F)NC1=O` [Compound B1]: the “Rabbit Psoas IC25” value in test [1] (Table 8) was determined as 0.0201 µM. Moreover, the “Porcine Ventricle IC25” value in test [2] (Table 8) was 0.0599 µM. Further, in the test on Porcine Atria myofibrils (Table 8), the “Porcine Atria IC25” value was found to be 0.09 µM.
In the case of `N#Cc1cnc2c(c1)CC[C@@H]2NC(=O)CN1C(=O)Nc2cccnc2C12CC2` [Compound N2], the “Rabbit Psoas IC25” value in test [1] (Table 7) was found to be 4.055 µM. In test [2] (Table 7), the “Porcine Ventricle IC25” value is 34.26 µM. Also, in the test with Porcine Atria myofibrils (Table 7), the “Porcine Atria IC25” value is 17.14 µM.
On to `C[C@H](NC(=O)[C@H](C)N1Cc2c(F)cccc2NC1=O)c1ccc(F)cc1F` [Compound B222], for which the “Rabbit Psoas IC25” value in test [1] (Table 8) stood at 0.041 µM. The “Porcine Ventricle IC25” value in test [2] (Table 8) was found to be 0.4365 µM. Also, the “Porcine Atria IC25” value with Porcine Atria myofibrils (Table 8) was 0.05 µM.
The matching figures for `C[C@H](NC(=O)[C@@H](C)N1Cc2c(Br)cccc2NC1=O)c1ccc(F)cc1F` [Compound B228]: 0.2844 µM, 2.111 µM and 0.32 µM.
Turning to `Cc1c(F)cnc2c1CN(CC(=O)N[C@H](C)c1ncc(F)cc1F)C(=O)N2` [Compound N52], the “Rabbit Psoas IC25” value in test [1] (Table 7) was 15.28 µM. Also, the “Porcine Ventricle IC25” value in test [2] (Table 7) turned out to be 100 µM. Further, the “Porcine Atria IC25” value with Porcine Atria myofibrils (Table 7) was determined as 98.42 µM.
With `C[C@@H](NC(=O)CN1C(=O)Nc2ccc(F)cc2C12CC2)c1cnc(C#N)cn1` [Compound B336], the “Rabbit Psoas IC25” value in test [1] (Table 8) was determined as 0.17 µM. The “Porcine Ventricle IC25” value in test [2] (Table 8) was found to be 0.27 µM. Also, the “Porcine Atria IC25” value in the test with Porcine Atria myofibrils (Table 8) came to 0.10 µM.
The matching figures for `C[C@H]1c2ccccc2NC(=O)N1CC(=O)N[C@@H](CO)c1ncc(F)cc1F` [Compound B166]: 6.966 µM, 100 µM and 51.60 µM.
For `O=C(CN1Cc2c(ccc(F)c2F)NC1=O)N[C@H]1CS(=O)(=O)c2cc(F)cc(F)c21` [Compound B19] the same measures were 100 µM, 100 µM and 100.00 µM.
As to `C[C@@H](NC(=O)CN1Cc2cc(F)ccc2NC1=O)c1ncc(C#N)cc1F` [Compound B198], the “Rabbit Psoas IC25” value in test [1] (Table 8) is 100 µM. In addition, the “Porcine Ventricle IC25” value in test [2] (Table 8) worked out at 100 µM. For the same compound, the “Porcine Atria IC25” value in the test on Porcine Atria myofibrils (Table 8) was 100.00 µM.
As for `C[C@H](NC(=O)CN1Cc2c(Br)cccc2NC1=O)c1ccc(F)cc1F` [Compound B226], the “Rabbit Psoas IC25” value in test [1] (Table 8) stood at 0.0244 µM. Further, the “Porcine Ventricle IC25” value in test [2] (Table 8) worked out at 0.2274 µM. Moreover, the “Porcine Atria IC25” value in the test with Porcine Atria myofibrils (Table 8) was 0.14 µM.
Take `COc1cc(C#N)ncc1[C@@H](C)NC(=O)CN1Cc2c(ccc(F)c2F)NC1=O` [Compound B79]: the “Rabbit Psoas IC25” value in test [1] (Table 8) worked out at 0.2662 µM. The “Porcine Ventricle IC25” value in test [2] (Table 8) was 0.4454 µM. Besides, in the test on Porcine Atria myofibrils (Table 8), the “Porcine Atria IC25” value was 0.04 µM.
For `Cc1cccc2c1C1(CC1)N(CC(=O)N[C@H]1COc3cc(C#N)cc(F)c31)C(=O)N2` [Compound B313] the same measures were 9.12 µM, 3.91 µM and 2.29 µM.
In the case of `COc1ccc2c(n1)C1(CC1)N(CC(=O)N[C@H](C)c1ncc(F)cc1F)C(=O)N2` [Compound N67], in test [1] (Table 7), the “Rabbit Psoas IC25” value worked out at 100 µM. Moreover, the “Porcine Ventricle IC25” value in test [2] (Table 7) came to 100 µM. Moreover, in the test with Porcine Atria myofibrils (Table 7), the “Porcine Atria IC25” value came out at 100.00 µM.
Consider `N#Cc1cc(F)c2c(c1)OC[C@@H]2NC(=O)CN1C(=O)Nc2cccc(C#N)c2C12CC2` [Compound B304], for which, in test [1] (Table 8), the “Rabbit Psoas IC25” value amounted to 1.05 µM. Besides, the “Porcine Ventricle IC25” value in test [2] (Table 8) stood at 3.96 µM. For the same compound, the “Porcine Atria IC25” value in the test on Porcine Atria myofibrils (Table 8) stood at 1.12 µM.
For `Cc1cccc2c1C1(CC1)N(CC(=O)N[C@@H]1COc3cc(C#N)cnc31)C(=O)N2` [Compound B299] the same measures were 63.22 µM, 100.00 µM and 67.41 µM.
For `CC(NC(=O)CN1Cc2c(ccc(F)c2F)NC1=O)c1cc2c(cn1)OCCN2C` (single isomer, unassigned) [Compound B74] the same measures were 100 µM, 100 µM and 1.24 µM.
As for `C[C@H](NC(=O)CN1C(=O)Nc2cccnc2C12COC2)c1ccc(F)cc1F` [Compound N35], in test [1] (Table 7), the “Rabbit Psoas IC25” value amounted to 0.9847 µM. For the same compound, the “Porcine Ventricle IC25” value in test [2] (Table 7) stood at 100 µM. The “Porcine Atria IC25” value with Porcine Atria myofibrils (Table 7) turned out to be 6.39 µM.
On to `C[C@@H](NC(=O)CN1Cc2c(ccc(F)c2C#N)NC1=O)c1ccc(C#N)cn1` [Compound B111], for which the “Rabbit Psoas IC25” value in test [1] (Table 8) was determined as 0.564 µM. Besides, the “Porcine Ventricle IC25” value in test [2] (Table 8) is 100 µM. Besides, the “Porcine Atria IC25” value in the test with Porcine Atria myofibrils (Table 8) came to 100.00 µM.
For `Cc1c(F)cnc2c1CN(CC(=O)N[C@@H](C)c1ccc(F)cc1F)C(=O)N2` [Compound N57, N-[(1S)-1-(2,4-Difluorophenyl)ethyl]-2-{6-fluoro-5-methyl-2-oxo-1H,4H-pyrido[2,3-d]pyrimidin-3-yl}acetamide], the “Rabbit Psoas IC25” value in test [1] (Table 7) turned out to be 6.748 µM. In test [2] (Table 7), the “Porcine Ventricle IC25” value was found to be 100 µM. Besides, in the test on Porcine Atria myofibrils (Table 7), the “Porcine Atria IC25” value worked out at 12.15 µM.
For `O=C(CN1Cc2c(ccc(F)c2F)NC1=O)N[C@H](CO)c1ncc(F)cc1F` [Compound B175], in test [1] (Table 8), the “Rabbit Psoas IC25” value was determined as 100 µM. In addition, in test [2] (Table 8), the “Porcine Ventricle IC25” value amounted to 100 µM. In the test with Porcine Atria myofibrils (Table 8), the “Porcine Atria IC25” value came to 100.00 µM.
`C[C@@H](NC(=O)CN1Cc2cc3c(cc2NC1=O)OCCO3)c1ncc(C#N)cc1F` [Compound B276]: the “Rabbit Psoas IC25” value in test [1] (Table 8) was 30.80 µM. Also, the “Porcine Ventricle IC25” value in test [2] (Table 8) was 23.74 µM. Besides, in the test on Porcine Atria myofibrils (Table 8), the “Porcine Atria IC25” value amounted to 100.00 µM.
Take `N#Cc1cnc2c(c1)OC[C@H]2NC(=O)CN1C(=O)Nc2cccc(C#N)c2C12CC2` [Compound B310]: the “Rabbit Psoas IC25” value in test [1] (Table 8) was determined as 0.08 µM. Besides, the “Porcine Ventricle IC25” value in test [2] (Table 8) is 0.37 µM. In addition, in the test on Porcine Atria myofibrils (Table 8), the “Porcine Atria IC25” value is 0.16 µM.
As to `C[C@@H](NC(=O)CN1Cc2c(ccc(F)c2F)NC1=O)c1ccc(C(F)(F)F)cn1` [Compound B107], the “Rabbit Psoas IC25” value in test [1] (Table 8) stood at 100 µM. For the same compound, the “Porcine Ventricle IC25” value in test [2] (Table 8) was found to be 100 µM. Also, the “Porcine Atria IC25” value with Porcine Atria myofibrils (Table 8) was 100.00 µM.
Take `C[C@H](NC(=O)C(C)(C)N1Cc2c(ccc(F)c2F)NC1=O)c1ncc(C#N)cc1F` [Compound B267]: in test [1] (Table 8), the “Rabbit Psoas IC25” value was 18.40 µM. Besides, the “Porcine Ventricle IC25” value in test [2] (Table 8) was found to be 3.96 µM. For the same compound, the “Porcine Atria IC25” value in the test with Porcine Atria myofibrils (Table 8) is 0.18 µM.

For the origin of these results see patent US12509431B2, “1,4-dihydroquinazolinone compounds and uses thereof” (Edgewise Therapeutics, Inc., priority 2022, dated 2025).
